{"source": "patent US4468469A", "about": "“Substituted phenylacetic acids and salts as TBP blocking agents in iodothyronine immunoassays” (Miles Laboratories, Inc., priority 1982, dated 1984)", "tested_on": "rabbit antibody to thyroxine", "experiment": "Radioimmunoassay for thyroxine in serum with fenclofenac as TBP blocking agent", "assay_type": "binding", "details": "0.67 mM fenclofenac", "protocol": "A radioimmunoassay for thyroxine in serum was conducted using fenclofenac as the TBP blocking agent. Serum standards in 100 μl aliquots containing known concentrations of thyroxine were combined with 290 μl of 0.1M sodium phosphate buffer, pH 6.5, an amount of fenclofenac to give a concentration of 0.67 mM in the final assay mixture, 2 μl of rabbit antibody to thyroxine, and a fixed amount of ^125 I-thyroxine (approximately 34,000 counts per minute per 100 μl in the final volume). After incubation at room temperature for 2 hours, 400 μl of 50% (w/v) polyethyleneglycol was added and the resulting precipitates collected by centrifugation. The radioactivity of each precipitate was then measured. The results are shown in Table 3 (μg/dl is micrograms per deciliter)."}
{"compound": "O=C(O)Cc1ccccc1Oc1ccc(Cl)cc1Cl", "note": "[Fenclofenac, 2-(2,4-dichlorophenoxy)phenylacetic acid]", "values": [{"measurement": "Counts per Minute in Precipitate", "setting": "thyroxine standard 0 μg/dl", "value": "23,700 Counts per Minute"}, {"measurement": "Counts per Minute in Precipitate", "setting": "thyroxine standard 1.0 μg/dl", "value": "21,800 Counts per Minute"}, {"measurement": "Counts per Minute in Precipitate", "setting": "thyroxine standard 2.5 μg/dl", "value": "17,300 Counts per Minute"}, {"measurement": "Counts per Minute in Precipitate", "setting": "thyroxine standard 5.0 μg/dl", "value": "14,400 Counts per Minute"}, {"measurement": "Counts per Minute in Precipitate", "setting": "thyroxine standard 10.0 μg/dl", "value": "10,000 Counts per Minute"}, {"measurement": "Counts per Minute in Precipitate", "setting": "thyroxine standard 20.0 μg/dl", "value": "7,500 Counts per Minute"}]}
